The record followed here is patent US20140107109A1, “AMINO-DIHYDROTHIAZINE AND AMINO-DIOXIDO DIHYDROTHIAZINE COMPOUNDS AS BETA-SECRETASE ANTAGONISTS AND METHODS OF USE” (Amgen Inc., priority 2012, published 2014).

The structures appear in SMILES notation. Some results are limits rather than exact numbers.

Test [1] has as its target Beta Secretase enzyme (BACE1) (Homo sapiens, UniProt P56817). The test can be described thus: In vitro enzymatic BACE FRET assay. It counts as biochemical. The following applies: average IC50, enzyme assay; read-out: BACE1 FRET assay IC50. An outline of the steps: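 Readout: dequenched fluorescence (ex 488 nm/[…]) after neutralizing with Tris buffer. Reactions, begun by adding 50 nM quenched peptide substrate spanning the BACE cleavage site, were incubated one hour at pH 4.2 in 0.05 M acetate with 100 uM genapol and 10% final DMSO.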

The subject of test [2] is Aβ40 in conditioned medium of cells stably expressing Amyloid Precursor Protein (APP). The test can be described thus: In vitro BACE cell-based assay (HEK cell assay), Aβ40 sandwich ELISA. The following applies: Homo sapiens, HEK293; average IC50, cell assay. In short, it runs like this:
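Aβ40 in conditioned medium was quantified by time-resolved fluorescence sandwich ELISA (pAb40 capture 3 h at 4 °C, biotin-6E10 detection 2 h at 4 °C) after 24 h compound exposure of APP-expressing cells. Doses spanned 10 points from 100 μM or 10 μM top, 0.1% DMSO; IC50 was derived from percent of control.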
(In general: An ELISA detects its analyte on a solid surface through an enzyme-linked reagent.)

Test [3] concerns the target T1, Cathepsin D (Cat D) (Homo sapiens, UniProt P07339).
T1 construct: Recombinant Cat D was expressed in CHO cells; made in house; host or cells: CHO cells
The test can be described thus: In vitro enzymatic Cathepsin D (Cat D) FRET assay. It counts as biochemical. Particulars: read-out: CatD IC50. In short, it runs like this:
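FRET read-out: a fluorophore/quencher-labelled peptide substrate is cleaved by 9 nM Cat D (recombinant, CHO-expressed) following a one-hour preincubation with inhibitor dilutions in DMSO. Tris buffer added to neutralize pH ends the reaction before fluorescence measurement.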

Beta Secretase enzyme (BACE1), sequence (P56817 46-501): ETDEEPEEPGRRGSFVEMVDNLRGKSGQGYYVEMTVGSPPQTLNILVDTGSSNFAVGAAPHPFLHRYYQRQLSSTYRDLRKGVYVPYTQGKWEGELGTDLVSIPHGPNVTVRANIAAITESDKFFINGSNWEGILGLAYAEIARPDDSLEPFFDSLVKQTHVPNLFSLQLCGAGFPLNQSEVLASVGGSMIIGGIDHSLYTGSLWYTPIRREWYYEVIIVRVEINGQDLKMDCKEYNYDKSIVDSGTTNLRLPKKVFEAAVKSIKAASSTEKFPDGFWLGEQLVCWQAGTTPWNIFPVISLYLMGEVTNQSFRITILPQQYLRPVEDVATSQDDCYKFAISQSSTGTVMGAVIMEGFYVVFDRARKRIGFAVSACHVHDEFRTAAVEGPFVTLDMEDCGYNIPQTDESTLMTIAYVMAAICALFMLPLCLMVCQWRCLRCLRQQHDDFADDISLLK
T1 sequence (P07339 65-412, species assumed): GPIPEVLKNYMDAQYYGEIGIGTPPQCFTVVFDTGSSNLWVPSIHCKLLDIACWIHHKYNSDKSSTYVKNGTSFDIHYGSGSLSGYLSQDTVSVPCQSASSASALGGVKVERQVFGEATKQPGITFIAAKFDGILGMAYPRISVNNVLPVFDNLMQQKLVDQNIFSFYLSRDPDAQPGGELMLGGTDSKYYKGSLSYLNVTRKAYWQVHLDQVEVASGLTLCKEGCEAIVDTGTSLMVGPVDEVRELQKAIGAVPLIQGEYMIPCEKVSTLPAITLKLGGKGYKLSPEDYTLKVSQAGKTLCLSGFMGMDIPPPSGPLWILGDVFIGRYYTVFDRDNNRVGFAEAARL

For `CC1(C)C(N)=N[C@](C)(c2cc(Oc3ncc(C(F)(F)F)cc3Cl)ccc2F)CS1(=O)=O` [Example 267, (5R)-5-(5-((3-chloro-5-(trifluoromethyl)-2-pyridinyl)oxy)-2-fluorophenyl)-2,2,5-trimethyl-5,6-dihydro-2H-1,4-thiazin-3-amine 1,1-dioxide], the IC50 (in general, the concentration that inhibits the measured activity by half) is 603 nM in test [1], 874 nM in test [2] and 221 µM in test [3].
`CC1(C)C(N)=N[C@](C)(c2cc(Oc3cc(N)nc(N)n3)ccc2F)CS1(=O)=O` [Example 268, 6-(3-((3R)-5-amino-3,6,6-trimethyl-1,1-dioxido-3,6-dihydro-2H-1,4-thiazin-3-yl)-4-fluorophenoxy)-2,4-pyrimidinediamine]: the IC50 is 318 nM in test [1], 305 nM in test [2] and 920 µM in test [3].
The like results for `CC1(C)C(N)=N[C@](C)(c2cc(Oc3cccc(C(F)(F)F)n3)ccc2F)CS1(=O)=O` [Example 269, (5R)-5-(2-fluoro-5-((6-(trifluoromethyl)-2-pyridinyl)oxy)phenyl)-2,2,5-trimethyl-5,6-dihydro-2H-1,4-thiazin-3-amine 1,1-dioxide] were, in that order, 248 nM, 574 nM and 132 µM.
The like results for `CC1(C)C(N)=N[C@](C)(c2cc(Oc3cnccn3)ccc2F)CS1(=O)=O` [Example 270, (5R)-5-(2-fluoro-5-(2-pyrazinyloxy)phenyl)-2,2,5-trimethyl-5,6-dihydro-2H-1,4-thiazin-3-amine 1,1-dioxide] were, in that order, 93.5 nM, 51.1 nM and 222 µM.
For `Cc1cc(C#N)cnc1Oc1ccc(F)c([C@]2(C)CS(=O)(=O)C(C)(C)C(N)=N2)c1` [Example 271, 6-(3-((3R)-5-amino-3,6,6-trimethyl-1,1-dioxido-3,6-dihydro-2H-1,4-thiazin-3-yl)-4-fluorophenoxy)-5-methyl-3-pyridinecarbonitrile] the same measures were 549 nM, 474 nM and 540 µM.
In the case of `Cc1nc(Oc2ccc(F)c([C@]3(C)CS(=O)(=O)C(C)(C)C(N)=N3)c2)ccc1C#N` [Example 272, 6-(3-((3R)-5-amino-3,6,6-trimethyl-1,1-dioxido-3,6-dihydro-2H-1,4-thiazin-3-yl)-4-fluorophenoxy)-2-methyl-3-pyridinecarbonitrile], the IC50 in test [1] is 2690 nM; in test [2], 2020 nM; in test [3] it was 217 µM.
For `CC1(C)C(N)=N[C@](C)(c2cc(Oc3ncccc3N)ccc2F)CS1(=O)=O` [Example 273, (5R)-5-(5-((3-amino-2-pyridinyl)oxy)-2-fluorophenyl)-2,2,5-trimethyl-5,6-dihydro-2H-1,4-thiazin-3-amine 1,1-dioxide] the same measures were 1500 nM, 1010 nM and above 400 µM.
Consider `CC1(C)C(N)=N[C@](C)(c2cc(Oc3ncccc3F)ccc2F)CS1(=O)=O` [Example 274, (5R)-5-(2-fluoro-5-((3-fluoro-2-pyridinyl)oxy)phenyl)-2,2,5-trimethyl-5,6-dihydro-2H-1,4-thiazin-3-amine 1,1-dioxide], for which the values for the IC50 in test [1], in test [2] and in test [3] were 37.4 nM, 34.8 nM and 153 µM, respectively.
For `CC1(C)C(N)=N[C@](C)(c2cc(Oc3ccc(F)cn3)ccc2F)CS1(=O)=O` [Example 275, (5R)-5-(2-fluoro-5-((5-fluoro-2-pyridinyl)oxy)phenyl)-2,2,5-trimethyl-5,6-dihydro-2H-1,4-thiazin-3-amine 1,1-dioxide] the same measures were 840 nM, 424 nM and 364 µM.
For `Cc1cc(Oc2ccc(F)c([C@]3(C)CS(=O)(=O)C(C)(C)C(N)=N3)c2)ncc1Cl` [Example 276, (5R)-5-(5-((5-chloro-4-methyl-2-pyridinyl)oxy)-2-fluorophenyl)-2,2,5-trimethyl-5,6-dihydro-2H-1,4-thiazin-3-amine 1,1-dioxide] the same measures were 2710 nM, 2630 nM and 421 µM.
For `CC1(C)C(N)=N[C@](C)(c2cc(Oc3ncc(C(F)(F)F)cc3F)ccc2F)CS1(=O)=O` [Example 277, (5R)-5-(2-fluoro-5-((3-fluoro-5-(trifluoromethyl)-2-pyridinyl)oxy)phenyl)-2,2,5-trimethyl-5,6-dihydro-2H-1,4-thiazin-3-amine 1,1-dioxide] the same measures were 1210 nM, 1150 nM and 331 µM.
Take `CC1(C)C(N)=N[C@](C)(c2cc(Oc3ncccc3C(F)(F)F)ccc2F)CS1(=O)=O` [Example 278, (5R)-5-(2-fluoro-5-((3-(trifluoromethyl)-2-pyridinyl)oxy)phenyl)-2,2,5-trimethyl-5,6-dihydro-2H-1,4-thiazin-3-amine 1,1-dioxide]: the IC50 in test [1] was determined as 341 nM; in test [2], 359 nM; in test [3] it was 147 µM.
Consider `CC1(C)C(N)=N[C@](C)(c2cc(Oc3ccc(C(F)(F)F)cn3)ccc2F)CS1(=O)=O` [Example 279, (5R)-5-(2-fluoro-5-((5-(trifluoromethyl)-2-pyridinyl)oxy)phenyl)-2,2,5-trimethyl-5,6-dihydro-2H-1,4-thiazin-3-amine 1,1-dioxide], for which the IC50 in test [1] came out at 5600 nM; in test [2] it was 2090 nM; in test [3] it was 188 µM.
For `CC1(C)C(N)=N[C@](C)(c2cc(Oc3cc(C#N)ccn3)ccc2F)CS1(=O)=O` [Example 280, 2-(3-((3R)-5-amino-3,6,6-trimethyl-1,1-dioxido-3,6-dihydro-2H-1,4-thiazin-3-yl)-4-fluorophenoxy)-4-pyridinecarbonitrile] the same measures were 39 nM, 52.1 nM and 395 µM.
For `CC1(C)C(N)=N[C@](C)(c2cc(Oc3cc(-c4ccc(Cl)cn4)ccn3)ccc2F)CS1(=O)=O` [Example 281, (5R)-5-(5-((5-chloro-2,4′-bipyridin-2′-yl)oxy)-2-fluorophenyl)-2,2,5-trimethyl-5,6-dihydro-2H-1,4-thiazin-3-amine 1,1-dioxide] the same measures were 807 nM, 1120 nM and 61.2 µM.
The like results for `CC1(C)C(N)=N[C@](C)(c2cc(Oc3ccc(C#N)cn3)ccc2F)CS1(=O)=O` [Example 282, 6-(3-((3R)-5-amino-3,6,6-trimethyl-1,1-dioxido-3,6-dihydro-2H-1,4-thiazin-3-yl)-4-fluorophenoxy)-3-pyridinecarbonitrile] were, in that order, 1560 nM, 1150 nM and 227 µM.
Consider `CC1(C)C(N)=N[C@](C)(c2cc(Oc3cccc(C#N)n3)ccc2F)CS1(=O)=O` [Example 283, 6-(3-((3R)-5-amino-3,6,6-trimethyl-1,1-dioxido-3,6-dihydro-2H-1,4-thiazin-3-yl)-4-fluorophenoxy)-2-pyridinecarbonitrile], for which the IC50 in test [1] amounted to 91.9 nM; in test [2], 82.8 nM; in test [3], 12.9 µM.
The like results for `CC1(C)C(N)=N[C@](C)(c2cc(Oc3ccc(F)c(C(F)(F)F)n3)ccc2F)CS1(=O)=O` [Example 284, (5R)-5-(2-fluoro-5-((5-fluoro-6-(trifluoromethyl)-2-pyridinyl)oxy)phenyl)-2,2,5-trimethyl-5,6-dihydro-2H-1,4-thiazin-3-amine 1,1-dioxide] were, in that order, 769 nM, 1640 nM and 79.1 µM.
For `CC1(C)C(N)=N[C@](C)(c2cc(Oc3cc(Br)ccn3)ccc2F)CS1(=O)=O` [Example 285, (5R)-5-(5-((4-bromo-2-pyridinyl)oxy)-2-fluorophenyl)-2,2,5-trimethyl-5,6-dihydro-2H-1,4-thiazin-3-amine 1,1-dioxide] the same measures were 37.5 nM, 91.8 nM and 374 µM.
As to `CC#Cc1ccnc(Oc2ccc(F)c([C@]3(C)CS(=O)(=O)C(C)(C)C(N)=N3)c2)c1` [Example 286, (5R)-5-(2-fluoro-5-((4-(1-propyn-1-yl)-2-pyridinyl)oxy)phenyl)-2,2,5-trimethyl-5,6-dihydro-2H-1,4-thiazin-3-amine 1,1-dioxide], the IC50 in test [1] is 228 nM; in test [2], 787 nM; in test [3] it was 119 µM.
The like results for `CC1(C)C(N)=N[C@](C)(c2cc(Oc3cc(-c4ccccc4)ccn3)ccc2F)CS1(=O)=O` [Example 289, (5R)-5-(2-fluoro-5-((4-phenyl-2-pyridinyl)oxy)phenyl)-2,2,5-trimethyl-5,6-dihydro-2H-1,4-thiazin-3-amine 1,1-dioxide] were, in that order, 50.9 nM, 568 nM and 92.7 µM.
For `CC1(C)C(N)=N[C@](C)(c2cc(Oc3cc(-c4ccncc4)ccn3)ccc2F)CS1(=O)=O` [Example 290, (5R)-5-(5-(4,4′-bipyridin-2-yloxy)-2-fluorophenyl)-2,2,5-trimethyl-5,6-dihydro-2H-1,4-thiazin-3-amine 1,1-dioxide] the same measures were 328 nM, 318 nM and 826 µM.
